Experiments:
[1] = target: Serine/threonine-protein kinase pim-1 (Homo sapiens, UniProt P11309); test: Inhibition of recombinant Pim1 (unknown origin) by electrochemiluminescence assay
[2] = target: Serine/threonine-protein kinase pim-2 (Homo sapiens, UniProt Q9P1W9); test: Inhibition of recombinant Pim2 (unknown origin) by electrochemiluminescence assay
Chain of Serine/threonine-protein kinase pim-2 (Q9P1W9 whole entry): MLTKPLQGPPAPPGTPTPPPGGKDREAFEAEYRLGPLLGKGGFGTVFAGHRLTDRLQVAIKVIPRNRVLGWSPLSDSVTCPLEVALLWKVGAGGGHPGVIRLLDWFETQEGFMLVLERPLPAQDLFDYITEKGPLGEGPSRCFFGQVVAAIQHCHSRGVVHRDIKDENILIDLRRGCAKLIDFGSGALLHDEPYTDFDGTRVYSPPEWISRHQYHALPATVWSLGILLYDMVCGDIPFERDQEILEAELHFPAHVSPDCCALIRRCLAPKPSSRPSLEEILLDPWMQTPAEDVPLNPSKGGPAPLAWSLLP

Chain of Serine/threonine-protein kinase pim-1 (P11309 whole entry): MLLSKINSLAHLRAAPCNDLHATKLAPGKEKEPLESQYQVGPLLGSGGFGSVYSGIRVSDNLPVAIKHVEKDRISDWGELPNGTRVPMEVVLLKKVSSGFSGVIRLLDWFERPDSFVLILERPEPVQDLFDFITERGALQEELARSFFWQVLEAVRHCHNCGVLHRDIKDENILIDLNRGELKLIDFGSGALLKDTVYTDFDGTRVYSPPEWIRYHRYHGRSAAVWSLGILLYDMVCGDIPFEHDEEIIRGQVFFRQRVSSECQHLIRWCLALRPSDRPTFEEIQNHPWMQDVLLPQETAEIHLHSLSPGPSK

| IC50 [1] [µM] | IC50 [2] [µM] | Compound |
| --- | --- | --- |
| > 1 | > 1 | N[C@H]1CCCN(c2cnccc2Nc2ncc3ccc(-c4c(F)cccc4F)nn23)C1 [US9187486, 80] |
| – | > 1 | N[C@H]1CCN(c2ccncc2Nc2ncc3ccc(-c4c(F)cccc4F)nn23)C1 [US9187486, 13] |
